Biological target: factor Xa (Homo sapiens, UniProt P00742)
Test: premature factor Xa-induced degradation of the thrombin substrate during common dwelling in liquid reagent
Format: biochemical
Conditions: common dwelling time of 2 h with factor Xa
From the text: The coagulation factor Xa is a serine protease which naturally recognizes the amino sequence -Ile-Glu-Gly-Arg- of prothrombin and by cleaving this sequence, activates the natural substrate prothrombin to form thrombin. In addition to this physiological substrate, factor Xa is also able to enzymatically cleave other peptides having this or other cleavage sequences. Thus, peptidic thrombin substrates and in particular the widely used Chromozym TH can also be cleaved by factor Xa. This low substrate specificity of factor Xa can result in problems in the methods according to the invention especially when such a thrombin substrate which can also be cleaved by factor Xa is used as a detection reagent and already comes into contact with factor Xa before adding the sample and can be converted thereby. As a result a portion of the thrombin substrate can already be converted such that this is no longer available for the thrombin-mediated detection reaction and thus the result of the measurement is affected. Such undesired side reactions can occur especially when factor Xa and the thrombin substrate are in contact over a long period such as would be for example the case if these two substances were to be introduced simultaneously into a liquid detection reagent. […]

factor Xa, sequence (P00742 235-488 limits assumed): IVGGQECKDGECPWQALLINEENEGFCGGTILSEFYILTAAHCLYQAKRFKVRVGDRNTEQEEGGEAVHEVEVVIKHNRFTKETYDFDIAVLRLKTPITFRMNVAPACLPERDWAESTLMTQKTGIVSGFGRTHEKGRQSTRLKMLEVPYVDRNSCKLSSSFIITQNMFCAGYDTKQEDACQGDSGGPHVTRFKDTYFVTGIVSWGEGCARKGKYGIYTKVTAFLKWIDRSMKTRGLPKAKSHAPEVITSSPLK
factor Xa, sequence (P00742 41-179 partner limits assumed): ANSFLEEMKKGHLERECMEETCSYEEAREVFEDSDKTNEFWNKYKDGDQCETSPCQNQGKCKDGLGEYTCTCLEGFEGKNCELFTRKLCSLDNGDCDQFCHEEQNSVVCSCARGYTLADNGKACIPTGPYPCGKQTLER

## tosyl-glycy-prolyl-arginine-4-nitroanilide acetate [reduced Chromozym TH]
  portion of the reduced Chromozym TH cleaved due alone to the action of factor Xa: about 25%

From patent US9594042B2, “Electrochemical determination of factor XA inhibitors” (Roche Diagnostics Operations Inc., priority 2006, dated 2017)
